From patent publication US20250066319A1, “NOVEL ACID ADDITION SALT AND CRYSTALLINE FORM OF (2R, 3S)-2-(3-(4,5-DICHLORO-1H-BENZO[d]IMIDAZOL-1-YL)PROPYL)PIPERIDIN-3-OL” (Daewoong Pharmaceutical Co., Ltd., priority 2021, published 2025) come the findings set out here.

The nature of data set [1]: Stability confirmation: severe test with respect to moisture, HPLC peak area of main component. Format: physicochemical. Particulars: 93% RH, open beaker, Monohydrochloride. How it is done: (§1) The acid addition salts prepared in some Examples and Comparative Examples were subjected to stability tests against high temperature and high humidity.
And, the severe tests with respect to moisture were performed by placing 50 mg of a sample in a 10 ml beaker, and measuring the content of impurities using HPLC (Azura, KNAUER, P6.1 1 L, DAD 6.1 L) after 1 week, 2 weeks, 4 weeks, and 8 weeks while storing the sample in a 93% RH desiccator in a state that the lid was not closed so that the sample has sufficient contact with the moisture in the air.
(§2) At a fixed time after the start of the test, one vial or beaker was taken out from each time point (the number of samples per test: n=1), and impurities were analyzed using HPLC under the conditions shown in Table 3 below. Then, the peak area was determined through integration for all the detected peaks, and then the relative peak area (%) for the main component was calculated and expressed as an average value.

Data set [2] can be described thus: Differential scanning calorimetry analysis after severe test with respect to temperature. Format: physicochemical. Particulars: high temperature condition (60° C.), 1 week and 8 weeks; Monohydrochloride. How it is done: For (2R,3S)-2-(3-(4,5-dichloro-1H-benzo[d]imidazol-1-yl)propyl)piperidin-3-ol monohydrochloride prepared in Example 1-1 and (2R,3S)-2-(3-(4,5-dichloro-1H-benzo[d]imidazol-1-yl)propyl)piperidin-3-ol dihydrochloride prepared in Comparative Example 1, each beaker was taken out 1 week and 8 weeks after the start of the test from the desiccator where the severe tests with respect to temperature were in progress, and the differential scanning calorimetry analysis was performed. At this time, the differential scanning calorimetry analysis was performed using a differential scanning calorimeter (DSC Q20, manufactured by TA Instruments) in a tightly closed pan under nitrogen purge at a scan rate of 10° C./min while raising the temperature from 20° C. to 300° C.

In data set [3] the target is T1, PRS protein (prolyl-tRNA synthetase, PRS portion of EPRS) (Homo sapiens, UniProt P07814).
T1 construct: the portion corresponding to PRS in cDNA of EPRS was subcloned; made in house
T1 sequence (P07814 1007-1512 limits assumed): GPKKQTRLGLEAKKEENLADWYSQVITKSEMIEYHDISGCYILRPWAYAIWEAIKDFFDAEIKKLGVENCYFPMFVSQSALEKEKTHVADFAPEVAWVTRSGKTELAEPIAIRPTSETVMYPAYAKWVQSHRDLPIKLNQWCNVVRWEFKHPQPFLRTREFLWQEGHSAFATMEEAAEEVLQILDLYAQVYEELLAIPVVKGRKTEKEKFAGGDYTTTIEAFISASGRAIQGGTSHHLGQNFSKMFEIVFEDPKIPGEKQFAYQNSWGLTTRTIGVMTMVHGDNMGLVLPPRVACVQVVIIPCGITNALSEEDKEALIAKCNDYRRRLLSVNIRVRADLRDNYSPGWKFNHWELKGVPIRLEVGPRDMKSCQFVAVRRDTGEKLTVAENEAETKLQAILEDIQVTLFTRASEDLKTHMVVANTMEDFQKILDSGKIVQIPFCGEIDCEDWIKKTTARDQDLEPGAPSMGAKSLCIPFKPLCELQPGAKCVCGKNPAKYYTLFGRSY
The data set is described as follows: PRS enzyme activity inhibition experiment. Format: biochemical. Particulars: [3H]proline, 37° C., 5 to 10 minutes. The method, then: IC50 values of PRS enzyme activity inhibition of the (2R,3S)-2-(3-(4,5-dichloro-1H-benzo[d]imidazol-1-yl)propyl)piperidin-3-ol monohydrochloride prepared in Example 1-1 were measured as follows.
Specifically, the portion corresponding to PRS in cDNA of EPRS was subcloned, and the obtained high-purity PRS protein was purified and used in the experiment. The compounds (1 μM) prepared in Examples were added into the reaction buffer (20 mM KPO4 (pH 7.4), 6 mM MgAc, 5 mM ATP, […] tRNA, 0.5 mM DTT, 20 mCi[^3H]proline (1 mCi/mL)) and allowed to react at 37° C. for 5 to 10 minutes. The reaction was terminated with 3M paper that was in advance dried by addition of 5% TCA. The radioactivity was measured using a liquid scintillation counter. % Inhibition and IC50 values of the compounds were calculated and analyzed using Microsoft Excel or Sigma Plot 8.0.

Data set [4] is described as follows: Hygroscopicity test (weight change in desiccators of constant relative humidity). To be noted: room temperature, one day. In kind it is physicochemical. Also on record: scale not given here. How it is done: The hygroscopicity tests of the acid addition salts prepared in Examples 1-1 to 1-6 and Comparative Example 1 were performed.
After one day, the change in weight was measured, then transferred to another desiccator and the previous experiment was repeated. At this time, for sorption analysis, the weight change was measured by moving the sample from a low-humidity desiccator to a high-humidity desiccator, and for desorption analysis, the weight change was measured by transferring the sample from a high-humidity desiccator with high humidity to a low-humidity desiccator.

Data set [5] in a line: Stability confirmation: severe test with respect to temperature, HPLC peak area of main component. Format: physicochemical. To be noted: 60° C., relative humidity less than 10%, Monohydrochloride. The method, then:
as §1
Specifically, the severe tests with respect to temperature were performed by placing 50 mg of a sample in a vial, closing the lid, and then measuring the content of impurities using HPLC (Azura, KNAUER, P6.1 1 L, DAD 6.1 L) after 1 week, 2 weeks, 4 weeks, and 8 weeks while storing in a chamber at 60° C. and a relative humidity of less than 10%.
as §2

Counter-ions that a name gives are not always drawn.

Take `O[C@H]1CCCN[C@@H]1CCCn1cnc2c(Cl)c(Cl)ccc21` [Example 1-1, (2R,3S)-2-(3-(4,5-dichloro-1H-benzo[d]imidazol-1-yl)propyl)piperidin-3-ol Monohydrochloride]: the “relative peak area for the main component (HPLC)” value in data set [1] (after 1 week) worked out at 99.8%; in data set [1] (after 2 weeks), 99.9%; in data set [1] (after 4 weeks), 99.8%; in data set [1] (after 8 weeks), 99.9%; in data set [1] (initial) it was 99.9%; in data set [5] (after 1 week), 99.9%. The “relative peak area for the main component (HPLC)” value is 99.8% in data set [5] (after 2 weeks), 99.9% in data set [5] (after 4 weeks), 99.8% in data set [5] (after 8 weeks) and 99.9% in data set [5] (initial). Further, the “change in differential scanning calorimetry analysis pattern” value in data set [2] was “does not show any change in differential scanning calorimetry analysis pattern”. In data set [3], the IC50 turned out to be 0.074 µM. Moreover, the “weight change, desorption” value is on record as 100.8 in data set [4] (11% RH, Monohydrochloride); 101.2 in data set [4] (33% RH, Monohydrochloride); 100.8 in data set [4] (54% RH, Monohydrochloride); 101.7 in data set [4] (75% RH, Monohydrochloride). Moreover, the “weight change, sorption” value is listed as 100 in data set [4] (11% RH); 100 in data set [4] (33% RH, Monohydrochloride); 101 in data set [4] (54% RH, Monohydrochloride); 101.6 in data set [4] (75% RH, Monohydrochloride); 101.6 in data set [4] (93% RH, Monohydrochloride).
